Where two headings read alike, the source gives them in different places.
Columns and labels:
[1] = In vitro cytotoxic activity; settings: for cytotoxic activity of seco precursor compared with cyclopropane agent: versus 17-20, 23, 30 and 31, respectively; for cytotoxic potency of the two enantiomers compared: natural versus unnatural enantiomer; for cytotoxic potency, effect of terminal N^2 substituent (18, 23, 24 compared): natural and unnatural enantiomers
[2] = system: duplex DNA (w794, w836, c988, c820, c1346); format: biochemical, SV40
[3] = Chemical/aqueous solvolysis reactivity followed by UV; format: physicochemical; settings: for solvolysis rate constant κ, pH 3: pH 3, 50% CH3 OH-buffer
Source text: The solvolysis reactivities of N--BOC-CNA (78) and CNA (79) were followed spectrophotometrically by UV at both pH 3 (50% CH3 OH-buffer, buffer=4:1:20 v/v/v 0.1 M citric acid, 0.2 M Na2 HPO4, H2 O) and pH 7 (50% CH3 OH--H2 O). […] Particularly informative are comparisons of the benzo series of agents that differ only in the C-ring size (i.e., 76-79). Solvolysis reactivity smoothly increases through the series CBI<CBQ<CNA with both the N--BOC derivatives and the free NH derivatives.
Aqueous Solvolysis of N--BOC-CNA (78) and CNA (79). Samples of 78 (150 μg) and 79 (150 [g) were dissolved in CH3 OH (1.5 mL) and the resulting solutions were mixed with aqueous buffer (pH 3, 1.5 mL, 4:1:20 (v:v:v) 0.1 M citric acid, 0.2 M Na2 HPO4, and deionized H2 O respectively). Similarly, a solution of 78 (150 μg) in CH3 OH (1.5 mL) was mixed with deionized H2 O (pH 7, 1.5 mL). The UV spectra of the solutions were measured immediately after mixing with the appropriate aqueous solution. The blank and the solvolysis reaction solutions were stoppered, protected from light, and allowed to stand at 25° C. The total reaction times reflect those required to observe no further change in absorbance. For the solvolysis of 78 at pH 3, the UV spectrum was taken every 30 s for 10 min and then every 3 min for the next 40 min. The decrease of the absorbance at 319 nm was monitored. […] For the solvolysis of 78 at pH 7, the UV spectrum was monitored every 5 min for 19 h. […] For the solvolysis of 79 at pH 3, the UV spectrum was monitored every 2 min for the first 110 min and then every 10 min for the next 4 h. The decrease in the absorbance at 345 nm was recorded.

[4] = 50% ch3oh-buffer, pH 3, pH 3, 50% CH3 OH-buffer, 25° C., read-out: solvolysis t1/2, pH 3 (h) (converted)
[5] = 50% ch3oh-buffer, pH 3, pH 3, 50% CH3 OH-buffer, 25° C., read-out: solvolysis t1/2, pH 3 (min)

In the case of COC(=O)c1cc2c3c(ccc2[nH]1)N(C(=O)c1cc2c4c(cc(O)c2[nH]1)N(C(=O)c1cc2cc(OC)c(OC)c(OC)c2[nH]1)CC4CCl)CC3 (stereo not shown) [compound 29, 7-[(Methyl 1,2-Dihydro-3H-pyrrolo[3,2e]indole-3-yl)carbonyl-7-carboxylate]-3-[(5,6,7-trimethoxyindol-2-yl)carbonyl]-1-(chloromethyl)-5-hydroxy-1,2-dihydro-3H-pyrrolo[3,2-e]indole], the “cytotoxic activity of seco precursor compared with cyclopropane agent” value [1] was “not distinguishable”.

For COC(=O)c1cc2c3c(ccc2[nH]1)N(C(=O)c1cc2c([nH]1)C(=O)C=C1N(C(=O)OC(C)(C)C)CC4CC124)CC3 (stereo not shown) [compound 19, 6-[(Methyl 1,2-Dihydro-3H-pyrrolo[3,2-e]indole-3-yl)carbonyl-7-carboxylate]-2-((tert-butyloxy)carbonyl)-1,2,8,8a-tetrahydrocyclopropa[c]-pyrrolo[3,2-e]indol-4-one], the “AT-rich adenine N3 alkylation selectivity (size of site)” value [2] was 3.5 base-pair and the “more potent cytotoxicity than simple derivatives N--BOC-DSA (4) and N--Ac-DSA” value ([1]; natural enantiomers) was “less than 10 ×”.

In the case of O=C1C=C2NCCCC3CC23c2ccccc21 (stereo not shown) [compound 79, 1,2,3,4,11,11a-Hexahydrocyclopropa[c]naphtho[2,1-b]azepin-6-one], the “more reactive than the corresponding CBI derivative (solvolysis)” value [3] was 1500 ×, the “reactivity difference, CNA versus CBQ” value [3] was “over a hundred-fold difference in reactivity” and the “solvolysis reactivity/stability in words or rank order” value (“solvolysis reactivity/stability” below) [3] was “sufficiently reactive to undergo rapid solvolysis even at pH 7”. For the same compound, the half-life [3, 4] was 0.62 h, the half-life [3, 5] was 0.617 h and the “solvolysis reactivity/stability” value ([3]; listed as CNA) was “CBI<CBQ<CNA”. The “solvolysis reactivity/stability” value ([3]; listed as CNA (79)) was “considerably more stable than N--BOC-CNA (78)” and the “solvolysis rate constant κ, pH 3” value ([3]; 25° C.) was 3.10×10^-4 s^-1.

For CC(C)(C)OC(=O)N1CCCC2CC23C1=CC(=O)c1ccccc13 (single isomer, unassigned; (+)) [(+)-78], the “cytotoxic potency of the two enantiomers compared” value [1] was “more potent activity”.

In the case of COC(=O)c1cc2c([nH]1)C(=O)C=C1N(C(=O)c3cc4c5c(ccc4[nH]3)N(C(=O)c3cc4c6c(ccc4[nH]3)N(C(N)=O)CC6)CC5)CC3CC123 (stereo not shown) [compound 61], the “cytotoxic potency of the two enantiomers compared” value [1] was “nearly equipotent”.

In the case of COC(=O)c1cc2cc(NC(=O)c3cc4cc(NC(=O)c5cc6c7c(cc(O)c6[nH]5)N(C(C)=O)CC7CCl)ccc4[nH]3)ccc2[nH]1 (stereo not shown) [compound 22, N-{2-[N-(2-Methoxycarbonyl-1H-indol-5-yl)]carbamoyl-1H-indol-5-yl}-3-acetyl-1-(chloromethyl)-5-hydroxy-1,2-dihydro-3H-pyrrolo[3,2-e]indole-7-carboxamide], the “cytotoxic activity of seco precursor compared with cyclopropane agent” value [1] was “not distinguishable”.

With COC(=O)c1cc2c3c(ccc2[nH]1)N(C(=O)c1cc2c4c(cc(O)c2[nH]1)N(C(=O)c1cc2c5c(ccc2[nH]1)N(C(N)=O)CC5)CC4CCl)CC3 (stereo not shown) [compound 28, 7-[(Methyl 1,2-Dihydro-(3H-pyrrolo[3,2-e]indole-3-yl)carbonyl-7-carboxy-late)-3-(3-carbamoyl-1,2-dihydro-3H-pyrrolo[3,2-e]indol-7-yl)carbonyl]-1-(chloromethyl)-5-hydroxy-1,2-dihydro-3H-pyrrolo[3,2-e]indole] the “cytotoxic activity of seco precursor compared with cyclopropane agent” value [1] was “not distinguishable”.

With COC(=O)c1cc2cc(NC(=O)c3cc4cc(NC(=O)c5cc6c([nH]5)C(=O)C=C5N(C(=O)OC(C)(C)C)CC7CC567)ccc4[nH]3)ccc2[nH]1 (stereo not shown) [compound 18, N-{2-[N-(2-Methoxycarbonyl-1H-indol-5-yl)]carbamoyl-1H-indol-5-yl}-2-(tert-butyloxycarbonyl)-1,2,8,8a-tetrahydrocyclopropa[c]pyrrolo[3,2-e]indol-4-one-6-carboxamide] the “AT-rich adenine N3 alkylation selectivity (size of site)” value [2] was 5 base-pair, the “comparison of DNA alkylation selectivity” value [2] was “no differences in their DNA alkylation selectivity” and the “less efficient at alkylating DNA than DSA-indole2” value [2] was “ca. 100 ×”. The “slower DNA alkylation than DSA-indole2” value [2] was “ca. 1000 ×”, the “unnatural enantiomer less effective at DNA alkylation than natural enantiomer” value [2] was “approximately 10 ×” and the “cytotoxic potency, effect of terminal N^2 substituent (18, 23, 24 compared)” value [1] was “essentially indistinguishable”. For the same compound, the “cytotoxic potency compared with simple derivatives N--BOC-DSA (4) and N--Ac-DSA” value ([1]; natural enantiomers) was “essentially indistinguishable”.

In the case of COC(=O)c1cc2cc(NC(=O)c3cc4cc(NC(=O)c5cc6c([nH]5)C(=O)C=C5N(C(C)=O)CC7CC567)ccc4[nH]3)ccc2[nH]1 (stereo not shown) [compound 23, N-{2-[N-(2-Methoxycarbonyl-1H-indol-5-yl)]carbamoyl-1H-indol-5-yl}-2-acetyl-1,2,8,8a-tetrahydrocyclopropa[c]pyrrolo[3,2-e]indole4-one-6-carboxamide], the “comparison of DNA alkylation selectivity” value [2] was “no differences in their DNA alkylation selectivity”, the “less efficient at alkylating DNA than DSA-indole2” value [2] was “ca. 100 ×” and the “more efficient DNA alkylation than the BOC derivative 18” value [2] was 2-5 ×. The “slower DNA alkylation than DSA-indole2” value [2] was “ca. 1000 ×”, the “unnatural enantiomer less effective at DNA alkylation than natural enantiomer” value [2] was “approximately 10 ×” and the “cytotoxic potency, effect of terminal N^2 substituent (18, 23, 24 compared)” value [1] was “essentially indistinguishable”. For the same compound, the “cytotoxic potency compared with simple derivatives N--BOC-DSA (4) and N--Ac-DSA” value ([1]; natural enantiomers) was “essentially indistinguishable”.

In the case of COc1cc2cc(C(=O)N3CCCC4CC45C3=CC(=O)c3ccccc35)[nH]c2c(OC)c1OC (stereo not shown) [compound 98, N-[(5,6,7-Trimethoxyindol-2-yl)carbonyl]-1,2,3,4,11,11a-hexahydrocyclopropa-[c]naphtho[2,1-b]azepin-6-one], the “more potent cytotoxicity than N--BOC-CNA (78), natural enantiomer” value ([1]; natural enantiomer) was 5-10 × and the “difference in cytotoxic potency versus N--BOC-CNA, unnatural enantiomer” value ([1]; unnatural enantiomers) was 1-2 ×.

In the case of O=C1C=C2NCCC3CC23c2ccccc21 (stereo not shown) [CBQ, reference compound], the “solvolysis reactivity difference, CBI versus CBQ” value [3] was 10 -fold and the “solvolysis reactivity/stability” value [3] was “CBI<CBQ<CNA”.

With COC(=O)c1cc2c3c(ccc2[nH]1)N(C(=O)c1cc2c([nH]1)C(=O)C=C1N(C(=O)c4cc5cc(OC)c(OC)c(OC)c5[nH]4)CC4CC124)CC3 (stereo not shown) [compound 31] the “cytotoxic potency compared with typical agents” value [1] was “essentially equipotent with the typical agents”.

In the case of COC(=O)N1CCCC2CC23C1=CC(=O)c1ccccc13 (stereo not shown) [compound 97, N-(Methoxycarbonyl)-1,2,3,4,11,11a-hexahydrocyclopropa[c]naphtho[2,1-b]azepin-6-one], the “more reactive than N--BOC-DSA (solvolysis)” value [3] was 10^3 -10^4 × and the half-life ([3]; 50% methanol-water, pH 7, no added acid catalysis, read-out: solvolysis t1/2, pH 7 (converted)) was 2.1 h.

In the case of CC(C)(C)OC(=O)N1CCCC2CC23C1=CC(=O)c1ccccc13 (stereo not shown) [compound 78], the “more reactive than N--BOC-DSA (solvolysis)” value [3] was 10^3 -10^4 ×, the “more reactive than the corresponding CBI derivative (solvolysis)” value [3] was 4750 × and the “solvolysis reactivity/stability” value [3] was “sufficiently reactive to undergo rapid solvolysis even at pH 7”. The half-life [3, 4] was 0.028 h, the half-life [3, 5] was 0.0283 h and the half-life ([3]; 50% ch3oh-h2o, pH 7, pH 7, 50% CH3 OH--H2 O, 25° C., read-out: solvolysis t1/2, pH 7 (converted)) was 2.1 h. The half-life ([3]; 50% methanol-water, pH 7, pH 7, no added acid catalysis, read-out: solvolysis t1/2, pH 7 (converted)) was 2.1 h, the “solvolysis reactivity/stability” value ([3]; listed as N--BOC-CNA) was “between that of N--BOC-CBQ and the exceptionally reactive N--BOC-CI” and the “solvolysis rate constant κ, pH 3” value ([3]; 25° C.) was 6.90×10^-3 s^-1. The “solvolysis rate constant κ, pH 7” value ([3]; pH 7, 50% CH3 OH--H2 O, 25° C.) was 9.16×10^-5 s^-1 and the “solvolysis t1/2, pH 7 (h)” value ([3]; pH 7, no added acid catalysis) was 2.1 h.

For O=C1C=C2NCC3CC23c2ccccc21 (stereo not shown) [CBI, reference compound], the “solvolysis reactivity difference, CBI versus CBQ” value [3] was 10 -fold and the “solvolysis reactivity/stability” value [3] was “CBI<CBQ<CNA”.
